Test results taken from patent US7560450B2, “Xanthine derivatives, the preparation thereof and their use as pharmaceutical compositions” (Boehringer Ingelheim Pharma GmbH & Co., KG, priority 2002, dated 2009).

molecular target: T1, DPP-IV (Homo sapiens, UniProt P27487); experiment: DPP-IV assay with Caco-2 cell extract as DPP IV source; format: biochemical; conditions: extract of human colon carcinoma cell line Caco-2 as DPP IV source; substrate AFC 100 μM; 60 minutes at ambient temperature; 11 measuring points; read-out: DPP IV inhibition IC50
T1 construct: an extract of human colon carcinoma cell line Caco-2 is used as the DPP IV source; endogenous in cells; host or cells: Caco-2 (human colon carcinoma), differentiated to induce DPP-IV expression; Nonidet-P40 solubilised extract
T1 sequence (P27487 whole entry): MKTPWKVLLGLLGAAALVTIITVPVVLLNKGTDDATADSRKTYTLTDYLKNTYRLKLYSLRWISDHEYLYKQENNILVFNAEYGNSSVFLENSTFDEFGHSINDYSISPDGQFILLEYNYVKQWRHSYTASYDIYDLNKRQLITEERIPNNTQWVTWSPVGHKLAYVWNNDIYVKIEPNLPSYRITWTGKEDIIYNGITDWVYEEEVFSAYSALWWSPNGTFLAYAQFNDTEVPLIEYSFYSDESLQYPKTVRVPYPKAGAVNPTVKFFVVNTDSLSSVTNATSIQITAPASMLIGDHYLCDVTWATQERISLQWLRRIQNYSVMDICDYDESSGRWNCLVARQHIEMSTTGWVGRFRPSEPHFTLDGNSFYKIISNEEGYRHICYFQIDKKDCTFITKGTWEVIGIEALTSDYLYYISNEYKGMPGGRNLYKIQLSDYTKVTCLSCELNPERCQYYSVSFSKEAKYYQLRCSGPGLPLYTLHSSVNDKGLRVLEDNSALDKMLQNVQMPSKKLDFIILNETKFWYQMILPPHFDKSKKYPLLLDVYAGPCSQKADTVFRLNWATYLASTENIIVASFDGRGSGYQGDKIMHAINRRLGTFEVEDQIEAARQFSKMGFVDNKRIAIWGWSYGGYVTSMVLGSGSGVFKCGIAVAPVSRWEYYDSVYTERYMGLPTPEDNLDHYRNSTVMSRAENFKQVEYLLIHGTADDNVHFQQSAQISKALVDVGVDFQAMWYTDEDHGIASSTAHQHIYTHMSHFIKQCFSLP
Experimental: The differentiation of the cells in order to induce the DPP-IV expression was carried out as described by Reiher et al. in an article entitled “Increased expression of intestinal cell line Caco-2”, which appeared in Proc. Natl. Acad. Sci. Vol. 90, pages 5757-5761 (1993). The cell extract was obtained from cells solubilised in a buffer (10 mM Tris HCl, 0.15 M NaCl, 0.04 t.i.u. aprotinin, 0.5% Nonidet-P40, pH 8.0) by centrifuging at 35,000 g for 30 minutes at 4° C. (to remove cell debris).
The DPP-IV assay was carried out as follows:
50 μl substrate solution (AFC; AFC is amido-4-trifluoromethylcoumarin), final concentration 100 μM, were placed in black microtitre plates. 20 μl of assay buffer (final concentrations 50 mM Tris HCl pH 7.8, 50 mM NaCl, 1% DMSO) was pipetted in. The reaction was started by adding 30 μl of solubilised Caco-2 protein (final concentration 0.14 μg of protein per well). The test substances to be investigated were typically added prediluted in 20 μl, and the volume of assay buffer was then reduced accordingly. The reaction was carried out at ambient temperature, incubating for 60 minutes. Then the fluorescence was measured in a Victor 1420 Multilabel Counter, the excitation wavelength being 405 nm and the emission wavelength being 535 nm. Blank readings (corresponding to 0% activity) were obtained in mixtures without any Caco-2 protein (volume replaced by assay buffer), control values (corresponding to 100% activity) were obtained in mixtures with no substance added. The potency of the test substances in question, expressed as IC50 values, was calculated from dosage/activity curves consisting of 11 measuring points in each case.

Compound	IC50
CC#CCn1c(N2CCC[C@@H](N)C2)nc2c1c(=O)n(CC(=O)NCc1ccccc1)c(=O)n2C [1(1), 1-[(benzylaminocarbonyl)methyl]-3-methyl-7-(2-butyn-1-yl)-8-[(R)-3-amino-piperidin-1-yl]-xanthine]	46 nM
CC#CCn1c(N2CCC[C@@H](N)C2)nc2c1c(=O)n(CC(=O)Nc1ccccc1)c(=O)n2C [1(2), 1-[(phenylaminocarbonyl)methyl]-3-methyl-7-(2-butyn-1-yl)-8-[(R)-3-amino-piperidin-1-yl]-xanthine]	26 nM
CC#CCn1c(N2CCC[C@@H](N)C2)nc2c1c(=O)n(CC(=O)OCc1cccnc1)c(=O)n2C [1(4), 1-{[(pyridin-3-yl)methoxycarbonyl]methyl}-3-methyl-7-(2-butyn-1-yl)-8-[(R)-3-amino-piperidin-1-yl]-xanthine]	13 nM
CC#CCn1c(N2CCC[C@@H](N)C2)nc2c1c(=O)n(CC(=O)Nc1cccnc1)c(=O)n2C [1(5), 1-{[(pyridin-3-yl)aminocarbonyl]methyl}-3-methyl-7-(2-butyn-1-yl)-8-[(R)-3-amino-piperidin-1-yl]-xanthine]	7 nM
CC#CCn1c(N2CCC[C@@H](N)C2)nc2c1c(=O)n(CC(=O)Nc1ccccc1C)c(=O)n2C [1(6), 1-{[(2-methyl-phenyl)aminocarbonyl]methyl}-3-methyl-7-(2-butyn-1-yl)-8-[(R)-3-amino-piperidin-1-yl]-xanthine]	722 nM
CC#CCn1c(N2CCC[C@@H](N)C2)nc2c1c(=O)n(CC(=O)Nc1ccccc1[N+](=O)[O-])c(=O)n2C [1(7), 1-{[(2-nitro-phenyl)aminocarbonyl]methyl}-3-methyl-7-(2-butyn-1-yl)-8-[(R)-3-amino-piperidin-1-yl]-xanthine]	4 nM
CC#CCn1c(N2CCCC(N)C2)nc2c1c(=O)n(CC(=O)Nc1ccc(C#N)cc1)c(=O)n2C (stereo not shown) [1(8), 1-{[(4-cyano-phenyl)aminocarbonyl]methyl}-3-methyl-7-(2-butyn-1-yl)-8-(3-amino-piperidin-1-yl)-xanthine]	42 nM
CC#CCn1c(N2CCC[C@@H](N)C2)nc2c1c(=O)n(CC(=O)Nc1ccccc1OC)c(=O)n2C [1(9), 1-{[(2-methoxy-phenyl)aminocarbonyl]methyl}-3-methyl-7-(2-butyn-1-yl)-8-[(R)-3-amino-piperidin-1-yl]-xanthine]	32 nM
CC#CCn1c(N2CCCC(N)C2)nc2c1c(=O)n(CC(=O)COc1ccccc1)c(=O)n2C (stereo not shown) [1(10), 1-(2-oxo-3-phenoxy-propyl)-3-methyl-7-(2-butyn-1-yl)-8-(3-amino-piperidin-1-yl)-xanthine]	286 nM
CC#CCn1c(N2CCCC(N)C2)nc2c1c(=O)n(CC(=O)NCc1ccccc1N)c(=O)n2C (stereo not shown) [1(11), 1-[(2-amino-benzylaminocarbonyl)methyl]-3-methyl-7-(2-butyn-1-yl)-8-(3-amino-piperidin-1-yl)-xanthine]	28 nM
CC#CCn1c(N2CCC[C@@H](N)C2)nc2c1c(=O)n(CC(=O)Nc1ccccn1)c(=O)n2C [Example 1(3), 1-{[(pyridin-2-yl)aminocarbonyl]methyl}-3-methyl-7-(2-butyn-1-yl)-8-[(R)-3-amino-piperidin-1-yl]-xanthine]	4 nM
CC#CCn1c(N2CCC[C@@H](N)C2)nc2c1c(=O)n(CC(=O)OCc1ccccc1)c(=O)n2C [Example 1, 1-[(benzyloxycarbonyl)methyl]-3-methyl-7-(2-butyn-1-yl)-8-[(R)-3-amino-piperidin-1-yl]-xanthine]	27 nM

system: rats; experiment: Tolerability after oral administration to rats (behaviour); format: in vivo; conditions: 10 mg/kg

Compound	changes in the animals' behaviour
CC#CCn1c(N2CCC[C@@H](N)C2)nc2c1c(=O)n(CC(=O)Nc1ccccn1)c(=O)n2C [Example 1(3), 1-{[(pyridin-2-yl)aminocarbonyl]methyl}-3-methyl-7-(2-butyn-1-yl)-8-[(R)-3-amino-piperidin-1-yl]-xanthine]	no changes in the animals' behaviour could be detected
